Reference: article PMC9977638 (Medicinal Chemistry Research, 2023)

Biological target: T1, human recombinant COX-2 (Homo sapiens, UniProt P35354)
T1 sequence (P35354 18-604): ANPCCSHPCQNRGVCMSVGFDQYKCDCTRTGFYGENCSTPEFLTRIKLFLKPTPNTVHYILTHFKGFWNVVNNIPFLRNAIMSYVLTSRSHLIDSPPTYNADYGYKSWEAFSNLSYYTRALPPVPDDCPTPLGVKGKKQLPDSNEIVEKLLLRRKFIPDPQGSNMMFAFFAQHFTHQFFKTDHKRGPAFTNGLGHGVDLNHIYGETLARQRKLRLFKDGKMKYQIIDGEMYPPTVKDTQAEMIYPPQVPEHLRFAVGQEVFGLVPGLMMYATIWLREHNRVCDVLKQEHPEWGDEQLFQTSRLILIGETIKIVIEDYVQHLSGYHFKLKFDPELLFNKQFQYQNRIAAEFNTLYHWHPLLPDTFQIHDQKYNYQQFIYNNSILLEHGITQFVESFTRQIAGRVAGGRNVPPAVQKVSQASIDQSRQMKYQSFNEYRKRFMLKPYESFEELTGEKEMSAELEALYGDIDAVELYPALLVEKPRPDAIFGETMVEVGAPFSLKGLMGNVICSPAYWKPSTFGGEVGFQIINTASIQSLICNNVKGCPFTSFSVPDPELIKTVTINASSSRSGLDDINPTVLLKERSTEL
Format: biochemical
Conditions: COX-1 IC50/COX-2 IC50

Selectivity index (S.I.): 508
SMILES: Cc1ccc(Nc2c(-c3ccc(S(C)(=O)=O)cc3)nc3c(C)cccn23)cc1 [Compound 5n, 8-Methyl-2-(4-(methylsulfonyl)phenyl)-N-(p-tolyl)imidazo[1,2-a]pyridin-3-amine]
